Our source for the Ki values is patent US20110046104A1, “AMINOPYRIMIDINES USEFUL AS KINASE INHIBITORS” (VERTEX PHARMACEUTICALS INCORPORATED, priority 2007, published 2011).

pKi: −log10 of the molar value. Where only a bound is given, the exact number is not on record here.

One assay has as its target T1, Aurora-2 (Aurora A) (Homo sapiens, UniProt O14965).
T1 sequence (O14965 1-403): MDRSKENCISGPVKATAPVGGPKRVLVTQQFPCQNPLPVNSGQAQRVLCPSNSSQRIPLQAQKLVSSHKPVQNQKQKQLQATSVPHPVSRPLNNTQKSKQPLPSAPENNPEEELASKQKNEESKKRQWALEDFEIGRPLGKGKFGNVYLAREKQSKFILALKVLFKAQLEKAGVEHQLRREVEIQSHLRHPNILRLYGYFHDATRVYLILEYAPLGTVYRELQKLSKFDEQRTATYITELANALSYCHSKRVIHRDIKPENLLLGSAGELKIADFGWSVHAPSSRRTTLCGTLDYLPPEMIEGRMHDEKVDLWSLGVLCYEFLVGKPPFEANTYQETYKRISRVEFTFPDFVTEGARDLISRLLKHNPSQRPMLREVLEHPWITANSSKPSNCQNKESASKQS
Nature of the assay: Aurora-2 (Aurora A) inhibition assay, coupled enzyme assay. The assay is classed as biochemical. The following applies: 400 μM ATP, 570 μM Kemptide, 40 nM Aurora-2, 30° C. As for the experimental part:
Compounds were screened for their ability to inhibit Aurora-2 using a standard coupled enzyme assay (Fox et al., Protein Sci., (1998) 7, 2249). Assays were carried out in a mixture of 100 mM Hepes (pH7.5), 10 mM MgCl2, 1 mM DTT, 25 mM NaCl, 2.5 mM phosphoenolpyruvate, 300 μM NADH, 30 μg/ml pyruvate kinase and 10 μg/ml lactate dehydrogenase. Final substrate concentrations in the assay were 400 μM ATP (Sigma Chemicals) and 570 μM peptide (Kemptide, American Peptide, Sunnyvale, Calif.). Assays were carried out at 30° C. and in the presence of 40 nM Aurora-2.
An assay stock buffer solution was prepared containing all of the reagents listed above, with the exception of Aurora-2 and the test compound of interest. 55 μl of the stock solution was placed in a 96 well plate followed by addition of 2 μl of DMSO stock containing serial dilutions of the test compound (typically starting from a final concentration of 7.5 μM). The plate was preincubated for 10 minutes at 30° C. and the reaction initiated by addition of 10 μl of Aurora-2. Initial reaction rates were determined with a Molecular Devices SpectraMax Plus plate reader over a 10 minute time course. IC50 and Ki data were calculated from non-linear regression analysis using the Prism software package (GraphPad Prism version 3.0cx for Macintosh, GraphPad Software, San Diego Calif., USA).
`O=C(CC(F)(F)F)Nc1ccc(Sc2nc(Nc3ncns3)cc(N3CC(F)(C4CC4)C3)n2)cc1` [Compound I-1, N-(4-(4-(1,2,4-thiadiazol-5-ylamino)-6-(3-cyclopropyl-3-fluoroazetidin-1-yl)pyrimidin-2-ylthio)phenyl)-3,3,3-trifluoropropanamide] showed a pKi of 7.48.

The target of another assay is Aurora-1 (Aurora B) (Homo sapiens, UniProt Q96GD4). The assay can be described thus: Aurora-1 (Aurora B) inhibition assay (radiometric). The assay is classed as biochemical. The following applies: 800 μM [γ-33P]-ATP, Kemptide, 25° C., 3 hours. The procedure: An assay buffer solution was prepared which consisted of 25 mM HEPES (pH 7.5), 10 mM MgCl2, 0.1% BSA and 10% glycerol. A 22 nM Aurora-B solution, also containing 1.7 mM DTT and 1.5 mM Kemptide (LRRASLG), was prepared in assay buffer. To 22 μL of the Aurora-B solution, in a 96-well plate, was added 2 μl of a compound stock solution in DMSO and the mixture allowed to equilibrate for 10 minutes at 25° C. The enzyme reaction was initiated by the addition of 16 μl stock [γ-^33P]-ATP solution (˜20 nCi/μL) prepared in assay buffer, to a final assay concentration of 800 μM. The reaction was stopped after 3 hours by the addition of 16 μL 500 mM phosphoric acid and the levels of ^33P incorporation into the peptide substrate were determined by the following method.
Aurora-1 (Aurora B), sequence (Q96GD4 whole entry): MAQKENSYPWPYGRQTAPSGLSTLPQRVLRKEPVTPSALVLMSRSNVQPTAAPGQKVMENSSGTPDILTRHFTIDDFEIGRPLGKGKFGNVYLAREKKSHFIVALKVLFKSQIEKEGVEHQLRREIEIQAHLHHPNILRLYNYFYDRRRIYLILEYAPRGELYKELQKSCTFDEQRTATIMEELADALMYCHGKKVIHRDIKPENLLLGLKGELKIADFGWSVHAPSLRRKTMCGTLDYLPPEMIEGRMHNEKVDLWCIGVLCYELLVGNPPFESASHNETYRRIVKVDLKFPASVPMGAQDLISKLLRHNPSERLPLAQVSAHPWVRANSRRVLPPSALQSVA
A phosphocellulose 96-well plate (Millipore, Cat no. MAPHNOB50) was pre-treated with 100 μL of a 100 mM phosphoric acid prior to the addition of the enzyme reaction mixture (40 μL). The solution was left to soak on to the phosphocellulose membrane for 30 minutes and the plate subsequently washed four times with 200 μL of a 100 mM phosphoric acid. To each well of the dry plate was added 30 μL of Optiphase ‘SuperMix’ liquid scintillation cocktail (Perkin Elmer) prior to scintillation counting (1450 Microbeta Liquid Scintillation Counter, Wallac). Levels of non-enzyme catalyzed background radioactivity were determined by adding 16 μL of the 500 mM phosphoric acid to control wells, containing all assay components (which acts to denature the enzyme), prior to the addition of the [γ-^33P]-ATP solution. Levels of enzyme catalyzed ^33P incorporation were calculated by subtracting mean background counts from those measured at each inhibitor concentration. For each Ki determination 8 data points, typically covering the concentration range 0-10 μM compound, were obtained in duplicate (DMSO stocks were prepared from an initial compound stock of 10 mM with subsequent 1:2.5 serial dilutions). Ki values were calculated from initial rate data by non-linear regression using the Prism software package (Prism 3.0, Graphpad Software, San Diego, Calif.).
Turning to `O=C(CC(F)(F)F)Nc1ccc(Sc2nc(Nc3ncns3)cc(N3CC(F)(C4CC4)C3)n2)cc1` [Compound I-1, N-(4-(4-(1,2,4-thiadiazol-5-ylamino)-6-(3-cyclopropyl-3-fluoroazetidin-1-yl)pyrimidin-2-ylthio)phenyl)-3,3,3-trifluoropropanamide], the pKi is less than 5.82. In turn, `O=C(CC(F)(F)F)Nc1ccc(Sc2nc(Nc3nnc[nH]3)cc(N3CC(F)(C4CC4)C3)n2)cc1` [Compound I-2, N-(4-(4-(4H-1,2,4-Triazol-3-ylamino)-6-(3-cyclopropyl-3-fluoroazetidin-1-yl)pyrimidin-2-ylthio)phenyl)-3,3,3-trifluoropropanamide] showed a pKi of less than 5.82. Same read-out and setting: then `O=C(CC(F)(F)F)Nc1ccc(Sc2nc(Nc3ccccn3)cc(N3CC(F)(C4CC4)C3)n2)cc1` [Compound I-3, N-(4-(4-(3-Cyclopropyl-3-fluoroazetidin-1-yl)-6-(pyridin-2-ylamino)pyrimidin-2-ylthio)phenyl)-3,3,3-trifluoropropanamide], with more than 6.30; and `O=C(Nc1ccc(Sc2nc(Nc3ncns3)cc(N3CC(F)(C4CC4)C3)n2)cc1)C1CC1` [Compound I-4, N-(4-(4-(1,2,4-Thiadiazol-5-ylamino)-6-(3-cyclopropyl-3-fluoroazetidin-1-yl)pyrimidin-2-ylthio)phenyl)cyclopropanecarboxamide], with less than 5.82.

`O=C(Nc1ccc(Sc2nc(Nc3ncns3)cc(N3CCC3)n2)cc1)c1ccccc1Cl` [Compound I-7, N-(4-(4-(1,2,4-Thiadiazol-5-ylamino)-6-(azetidin-1-yl)pyrimidin-2-ylthio)phenyl)-2-chlorobenzamide] showed a pKi of more than 6.30. `O=C(NCC(F)(F)F)c1ccc(Sc2nc(Nc3ncns3)cc(N3CC(F)(C4CC4)C3)n2)cc1` [Compound I-8, 4-(4-(1,2,4-Thiadiazol-5-ylamino)-6-(3-cyclopropyl-3-fluoroazetidin-1-yl)pyrimidin-2-ylthio)-N-(2,2,2-trifluoroethyl)benzamide] gave a pKi of less than 5.82. Compound `O=C(CC(F)(F)F)Nc1ccc(Sc2nc(Nc3ccccn3)cc(N3CC[C@H](F)C3)n2)cc1` [Compound I-9, (S)-3,3,3-Trifluoro-N-(4-(4-(3-fluoropyrrolidin-1-yl)-6-(pyridin-2-ylamino)pyrimidin-2-ylthio)phenyl)propanamide] gave a negative logarithm of the Ki (pKi) of less than 5.82. As to `O=C(CC(F)(F)F)Nc1ccc(Sc2nc(Nc3nnc[nH]3)cc(N3CC[C@H](F)C3)n2)cc1` [Compound I-10, (S)—N-(4-(4-(4H-1,2,4-Triazol-3-ylamino)-6-(3-fluoropyrrolidin-1-yl)pyrimidin-2-ylthio)phenyl)-3,3,3-trifluoropropanamide], the pKi was more than 6.30. In the case of `O=C(CC(F)(F)F)Nc1ccc(Sc2nc(Nc3ncns3)cc(N3CC[C@H](F)C3)n2)cc1` [Compound I-11, (S)—N-(4-(4-(1,2,4-Thiadiazol-5-ylamino)-6-(3-fluoropyrrolidin-1-yl)pyrimidin-2-ylthio)phenyl)-3,3,3-trifluoropropanamide], the pKi was less than 5.82.
